In one test the test system is Candida albicans. The test is described as follows: Antifungal activity against Candida albicans SC5314 assessed as fungal growth inhibition incubated for 2 days by broth serial dilution method. The format is functional. Particulars: for Activity: time 2.0 day.
The next test has as its system Cryptococcus neoformans. Description: Antifungal activity against Cryptococcus neoformans H99 assessed as fungal growth inhibition incubated for 2 days by broth serial dilution method. Conditions: H99, 48 h, time 2 day. The format is functional.

SMILES strings stand for the structures. In brackets after ≈: the same amount, converted by molar mass. Activity calls are given as the source filed them. The calls are words filed in the database; no cut-off is given here. Bounds are passed on as bounds.

For `O=C(O)c1c[nH]c2ccccc12`, the result with Candida albicans was inactive. In addition, the MIC with Cryptococcus neoformans turned out to be 12 µg/mL (≈ 74.5 µM).

On to `CC(C)C[C@@H]1NC(=O)[C@H](C(C)C)NC1=O`, for which, in the test on Candida albicans, the outcome was inactive. The minimum inhibitory concentration (MIC) in the test on Cryptococcus neoformans came out at 50 µg/mL (≈ 236 µM).

As for `O=c1[nH]c2ccccc2o1` [BENZOXAZOLINONE], the outcome in the test on Candida albicans was inactive. Also, the MIC in the test on Cryptococcus neoformans came to 25 µg/mL (≈ 185 µM).

Regarding `Cc1c(C(=O)O)c(O)cc2c1C(=O)c1c(O)cc(O)cc1C2=O`, the result with Candida albicans was inactive. Also, the MIC with Cryptococcus neoformans came out at 100 µg/mL (≈ 318 µM).

For `C[C@H](O)/C=C/[C@@H]1OC(=O)C[C@H]1Nc1ccc(C(=O)O)cc1`, the result in the test on Candida albicans was inactive. Moreover, in the test on Cryptococcus neoformans, the minimum inhibitory concentration (MIC) came to 100 µg/mL (≈ 343 µM).

Take `CC(C)C[C@@H]1NC(=O)CNC1=O`: in the test on Candida albicans, the outcome was inactive. Besides, in the test with Cryptococcus neoformans, the minimum inhibitory concentration (MIC) was 25 µg/mL (≈ 147 µM).

For `OC(Cn1cncn1)(Cn1cncn1)c1ccc(F)cc1F` [FLUCONAZOLE], the minimum inhibitory concentration (MIC) in the test on Cryptococcus neoformans amounted to 4 µg/mL (≈ 13.1 µM).

For the compound `C/C=C/[C@H](O)[C@@H]1OC(=O)C[C@H]1Nc1ccc(C(=O)O)cc1`, the outcome in the test on Candida albicans was inactive. The MIC with Cryptococcus neoformans is 25 µg/mL (≈ 85.8 µM).

Consider `CC(=O)CC[C@@H]1OC(=O)C[C@H]1Nc1ccc(C(=O)O)cc1`, for which the minimal inhibitory concentration (MIC) in the test with Candida albicans (SC5314, 48 h, time 2 day) is over 100 µg/mL; in the test with Cryptococcus neoformans, 50 µg/mL (≈ 172 µM).

In the case of `O=C1[C@H](Cc2ccccc2)NC(=O)[C@]2(O)CCCN12`, the result with Candida albicans was inactive. In the test on Cryptococcus neoformans, the MIC amounted to 50 µg/mL (≈ 192 µM).

As to `O=C1N[C@@H](Cc2ccccc2)C(=O)N2C[C@H](O)C[C@@H]12`, the result in the test with Candida albicans was inactive. The MIC in the test on Cryptococcus neoformans was 50 µg/mL (≈ 192 µM).

Consider `C[C@@H]1NC(=O)[C@H](Cc2ccccc2)NC1=O`, for which, in the test on Candida albicans, the outcome was inactive. Besides, in the test with Cryptococcus neoformans, the MIC is 100 µg/mL (≈ 458 µM).

Regarding `CC(C)[C@@H]1NC(=O)[C@@H]2CCCN2C1=O`, the outcome with Candida albicans was inactive. Moreover, in the test with Cryptococcus neoformans, the minimal inhibitory concentration (MIC) turned out to be 100 µg/mL (≈ 510 µM).

As for `CC(=O)NCCc1c[nH]c2ccccc12` [NB-ACETYLTRYPTAMINE], the outcome with Candida albicans was inactive. Further, in the test on Cryptococcus neoformans, the MIC stood at 200 µg/mL (≈ 989 µM).

Turning to `Cc1cc(O)cc2cc3c(c(O)c12)C(=O)CC[C@@H]3O`, the outcome in the test with Candida albicans was inactive. Besides, the MIC with Cryptococcus neoformans worked out at 50 µg/mL (≈ 194 µM).

On to `Cc1c(C(=O)O)c(O)cc2c1C(=O)c1c(O)cccc1C2=O`, for which the outcome with Candida albicans was inactive. The MIC in the test with Cryptococcus neoformans came to 100 µg/mL (≈ 335 µM).

Consider `CC(=O)Nc1ccccc1O`, for which, in the test on Candida albicans, the outcome was inactive. Besides, in the test with Cryptococcus neoformans, the minimal inhibitory concentration (MIC) came to 50 µg/mL (≈ 331 µM).

As for `C[C@]1(O)CC(=O)c2c(cc3cccc(O)c3c2O)C1`, in the test with Candida albicans, the result was inactive. Also, the minimum inhibitory concentration (MIC) in the test on Cryptococcus neoformans is 50 µg/mL (≈ 194 µM).

`CC(C)C[C@@H]1NC(=O)[C@@H]2CCCN2C1=O`: the result in the test with Candida albicans was inactive. Further, the MIC in the test on Cryptococcus neoformans worked out at 50 µg/mL (≈ 238 µM).

For `CC(C)C[C@@H]1NC(=O)[C@@H]2C[C@@H](O)CN2C1=O`, the outcome with Candida albicans was inactive. Besides, the minimum inhibitory concentration (MIC) with Cryptococcus neoformans was 25 µg/mL (≈ 110 µM).

For `O=C1CNC(=O)[C@H](Cc2ccccc2)N1`, the outcome in the test with Candida albicans was inactive. Also, the MIC with Cryptococcus neoformans worked out at 50 µg/mL (≈ 245 µM).

What is called MIC is the least concentration at which growth counts as inhibited.

For the origin of these results see ChEMBL document CHEMBL5390203, “Identification of Obscurolide-Type Metabolites and Antifungal Metabolites from the Termite-Associated Streptomyces neopeptinius BYF101” (2023).
